In patent publication US12144802B2, “Pharmaceutical compositions of roflumilast and solvents capable of dissolving high amounts of the drug” (ARCUTIS BIOTHERAPEUTICS, INC., priority 2022, dated 2024):

Assay: solubility (saturation concentration) of roflumilast in solvent-water blends, HPLC after 0.2 micron filtration
Format: physicochemical
Conditions: controlled room temperature
Procedure: The solubility of roflumilast in various solvents was determined. Compositions of roflumilast and the solvents identified in Table 1 were prepared. To prepare the compositions, 10 g of a solvent-water blend was added into a 20 mL clear glass vial. 0.05 g of the active pharmaceutical ingredient (API), roflumilast, was added into the vial. The vial was mixed on a jar roller at controlled room temperature at an appropriate speed. A visual evaluation was performed after shaking. If all of the API was dissolved, an additional 0.05 g of API was added into the vial and further mixing was performed. If any API remained undissolved, the total amount of API added to the vial was recorded. The visual inspection was repeated as necessary until no more API could be dissolved. For each solvent, the solubility was determined by syringe filtering (0.2 micron filter) the solvent blend to remove undissolved roflumilast and determining the amount of dissolved roflumilast using HPLC analysis. Composition of the solvent blends were an equal molar solvent-water mixtures, as well as a 1:2 (weight:weight) solvent-water blends. Transcutol P, which is described for use with roflumilast in U.S. Patent Publication No. 2019/009133, was used as a reference point in Example 1.

μg roflumilast per mL blend (saturation concentration) (1:2 solvent to water (weight:weight), reference solvent Transcutol P (111-90-0), 5.00 g solvent, 10.01 g water): 45.01 µg/mL
μg roflumilast per mL blend (saturation concentration) (1:2 solvent to water (weight:weight), solvent 1,2-hexanediol (6920-22-5), 5.02 g solvent, 10.02 g water): 293.26 µg/mL
μg roflumilast per mL blend (saturation concentration) (1:2 solvent to water (weight:weight), solvent 1,2-pentanediol (3174-67-2), 5.01 g solvent, 10.04 g water): 139.71 µg/mL
μg roflumilast per mL blend (saturation concentration) (1:2 solvent to water (weight:weight), solvent 1,3-butylene glycol (107-88-0), 5.01 g solvent, 10.00 g water): 11.27 µg/mL
μg roflumilast per mL blend (saturation concentration) (1:2 solvent to water (weight:weight), solvent 1,3-propanediol (504-63-2), 5.01 g solvent, 10.02 g water): 6.23 µg/mL
μg roflumilast per mL blend (saturation concentration) (1:2 solvent to water (weight:weight), solvent 1,6-hexanediol (629-11-8), 5.01 g solvent, 10.02 g water): 112.31 µg/mL
μg roflumilast per mL blend (saturation concentration) (1:2 solvent to water (weight:weight), solvent 5-methyloxolan-2-one (108-29-2), 5.01 g solvent, 10.01 g water): 392.14 µg/mL
μg roflumilast per mL blend (saturation concentration) (1:2 solvent to water (weight:weight), solvent Pantolactone (599-04-2), 5.03 g solvent, 10.02 g water): 62.04 µg/mL
μg roflumilast per mL blend (saturation concentration) (1:2 solvent to water (weight:weight), solvent dipropylene glycol (25265-71-8), 5.01 g solvent, 10.01 g water): 34.44 µg/mL
μg roflumilast per mL blend (saturation concentration) (1:2 solvent to water (weight:weight), solvent propylene glycol methyl ethyl acetate (107-98-2), 5.01 g solvent, 10.03 g water): 65.80 µg/mL
μg roflumilast per mL blend (saturation concentration) (equal molar solvent-water blend, reference solvent Transcutol P (111-90-0), 2.00 g solvent, 14.81 g water): 2.55 µg/mL
μg roflumilast per mL blend (saturation concentration) (equal molar solvent-water blend, solvent 1,2-hexanediol (6920-22-5), 2.00 g solvent, 13.24 g water): 37.67 µg/mL
μg roflumilast per mL blend (saturation concentration) (equal molar solvent-water blend, solvent 1,2-pentanediol (3174-67-2), 2.21 g solvent, 12.80 g water): 4.16 µg/mL
μg roflumilast per mL blend (saturation concentration) (equal molar solvent-water blend, solvent 1,3-butylene glycol (107-88-0), 2.52 g solvent, 12.51 g water): 1.46 µg/mL
μg roflumilast per mL blend (saturation concentration) (equal molar solvent-water blend, solvent 1,3-propanediol (504-63-2), 3.00 g solvent, 12.60 g water): 2.77 µg/mL
μg roflumilast per mL blend (saturation concentration) (equal molar solvent-water blend, solvent 1,6-hexanediol (629-11-8), 2.00 g solvent, 13.11 g water): 5.81 µg/mL
μg roflumilast per mL blend (saturation concentration) (equal molar solvent-water blend, solvent 5-methyloxolan-2-one (108-29-2), 2.51 g solvent, 14.03 g water): 7.80 µg/mL
μg roflumilast per mL blend (saturation concentration) (equal molar solvent-water blend, solvent Pantolactone (599-04-2), 2.00 g solvent, 14.41 g water): 0.96 µg/mL
μg roflumilast per mL blend (saturation concentration) (equal molar solvent-water blend, solvent dipropylene glycol (25265-71-8), 2.02 g solvent, 14.84 g water): 2.27 µg/mL
μg roflumilast per mL blend (saturation concentration) (equal molar solvent-water blend, solvent propylene glycol methyl ethyl acetate (107-98-2), 2.50 g solvent, 12.52 g water): 6.04 µg/mL
Compound: O=C(Nc1c(Cl)cncc1Cl)c1ccc(OC(F)F)c(OCC2CC2)c1 [roflumilast, N-(3,5-dichloropyrid-4-yl)-3-cyclopropylmethoxy-4-difluoromethoxybenzamide]
μg roflumilast per mL blend (saturation concentration) (1:2 solvent to water (weight:weight), solvent 2-(2-butoxy-ethoxy)ethanol (112-34-5), 5.01 g solvent, 10.01 g water): 802.24 µg/mL
μg roflumilast per mL blend (saturation concentration) (equal molar solvent-water blend, solvent 2-(2-butoxy-ethoxy)ethanol (112-34-5), 1.50 g solvent, 13.50 g water): 2.29 µg/mL
